From patent publication US20250368627A1, “PYRAZOLESULFONAMIDES AS ANTITUMOR AGENTS” (Peloton Therapeutics, Inc., a fully owned subsidiary of …, priority 2019, published 2025)

Experiments:
[1] = biological target: T1, DDB1DB/DCAF15 and RBM39 R1R2 complex (Homo sapiens, UniProt Q14498+Q66K64); experiment: DCAF15 RBM39 Complex Formation Assay (FRET); type: binding; details: FRET ratio Em 665/Em 615, incubated overnight at 4° C.
T1 construct: Amino acids 150 to 331 of RBM39 were cloned into pGEX4T3; GST (from vector pGEX4T3); TEV cleavage site (N); made in house; host or cells: DDB1DB/His-DCAF15: baculovirus/Sf9 co-expression; RBM39 R1R2: E. coli (pGEX4T3)
Summary of the method: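 Ternary complex formation read by TR-FRET (Em 665/615, excitation 340 nm) after overnight incubation at 4° C of 20 nM baculovirus DDB1DB/His-DCAF15 and 50 nM E. coli RBM39 RRM1-RRM2 FLAG fragment with 14-point, 3-fold compound dilutions from 1 μM; EC50 from 4-parameter fit.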

[2] = system: HCT116 human colorectal carcinoma cells; experiment: CellTiter-Glo Luminescent Cell Viability Assay; type: cell-based; details: HCT-116, 72 h, 3 days
Summary of the method: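 CellTiter-Glo luminescence gave viability after 3 days of compound exposure in HCT116 cells grown in DMEM/10% FBS. Final concentrations ran from 5 to 0.0002 […] in 1:3 steps, each in triplicate, with IC50 derived from the curves.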

T1 sequence (Q66K64 whole entry, the tested form may be a part): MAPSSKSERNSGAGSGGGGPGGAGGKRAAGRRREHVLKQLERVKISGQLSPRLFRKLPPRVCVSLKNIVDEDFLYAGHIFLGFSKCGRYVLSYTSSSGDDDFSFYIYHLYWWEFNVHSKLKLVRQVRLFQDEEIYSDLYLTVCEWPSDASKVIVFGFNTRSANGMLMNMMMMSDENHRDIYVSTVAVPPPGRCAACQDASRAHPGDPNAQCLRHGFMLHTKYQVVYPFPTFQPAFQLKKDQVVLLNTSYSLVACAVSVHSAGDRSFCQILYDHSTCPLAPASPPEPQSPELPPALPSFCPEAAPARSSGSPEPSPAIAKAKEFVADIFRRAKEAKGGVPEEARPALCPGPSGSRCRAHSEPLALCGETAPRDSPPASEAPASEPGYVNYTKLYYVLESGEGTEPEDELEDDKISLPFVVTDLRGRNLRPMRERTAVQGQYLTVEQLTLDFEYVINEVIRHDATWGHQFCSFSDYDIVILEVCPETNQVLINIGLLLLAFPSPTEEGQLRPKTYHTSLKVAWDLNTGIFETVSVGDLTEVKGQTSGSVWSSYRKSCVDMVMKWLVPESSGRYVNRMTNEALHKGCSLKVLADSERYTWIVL
T1 sequence (Q14498 150-331): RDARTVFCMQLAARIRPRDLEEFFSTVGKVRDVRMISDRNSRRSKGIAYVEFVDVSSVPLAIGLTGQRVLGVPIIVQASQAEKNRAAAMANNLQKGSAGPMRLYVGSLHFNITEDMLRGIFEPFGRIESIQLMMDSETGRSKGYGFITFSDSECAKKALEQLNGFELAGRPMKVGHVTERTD
T1 sequence (Q16531 with tags, fused parts or gaps DEL396-708 partner): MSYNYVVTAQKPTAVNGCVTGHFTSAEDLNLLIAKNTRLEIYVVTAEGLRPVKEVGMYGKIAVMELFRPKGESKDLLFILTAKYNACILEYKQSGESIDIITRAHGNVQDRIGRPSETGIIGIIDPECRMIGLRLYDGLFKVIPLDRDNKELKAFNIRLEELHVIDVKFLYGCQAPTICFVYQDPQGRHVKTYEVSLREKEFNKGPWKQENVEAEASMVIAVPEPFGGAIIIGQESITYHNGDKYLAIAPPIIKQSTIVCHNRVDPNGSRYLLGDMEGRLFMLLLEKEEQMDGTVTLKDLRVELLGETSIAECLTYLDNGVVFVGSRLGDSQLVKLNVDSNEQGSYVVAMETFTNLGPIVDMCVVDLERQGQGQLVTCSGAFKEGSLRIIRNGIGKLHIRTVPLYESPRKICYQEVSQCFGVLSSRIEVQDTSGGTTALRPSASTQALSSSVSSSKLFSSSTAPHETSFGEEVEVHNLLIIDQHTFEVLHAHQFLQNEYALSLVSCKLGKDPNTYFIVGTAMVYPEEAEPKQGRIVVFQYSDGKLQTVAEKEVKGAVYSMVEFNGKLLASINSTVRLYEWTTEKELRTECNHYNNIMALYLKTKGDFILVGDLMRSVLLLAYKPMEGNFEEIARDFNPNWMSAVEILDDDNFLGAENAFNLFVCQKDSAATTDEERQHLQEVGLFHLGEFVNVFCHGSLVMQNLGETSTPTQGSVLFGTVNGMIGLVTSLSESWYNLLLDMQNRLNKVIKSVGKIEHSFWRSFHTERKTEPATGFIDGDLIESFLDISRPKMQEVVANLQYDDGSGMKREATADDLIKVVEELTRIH

IC50 [1] [nM] | EC50 [2] [nM] | Structure (SMILES)
< 250 | 250 to 1000 | N#Cc1c[nH]c2c(NS(=O)(=O)c3cn[nH]c3)ccc(Cl)c12 [Compound 121, N-(4-chloro-3-cyano-1H-indol-7-yl)-1H-pyrazole-4-sulfonamide]
< 250 | < 250 | Cn1ncc(S(=O)(=O)Nc2ccc(Cl)c3c(C#N)c[nH]c23)c1F [Compound 122, N-(4-chloro-3-cyano-1H-indol-7-yl)-5-fluoro-1-methyl-pyrazole-4-sulfonamide]
< 250 | 250 to 1000 | N#Cc1c[nH]c2c(NS(=O)(=O)c3cnn(CC4CC4)c3)ccc(Cl)c12 [Compound 123, N-(4-chloro-3-cyano-1H-indol-7-yl)-1-(cyclopropylmethyl)pyrazole-4-sulfonamide]
< 250 | < 250 | N#Cc1c[nH]c2c(NS(=O)(=O)c3cnn(CF)c3)ccc(Cl)c12 [Compound 124, N-(4-chloro-3-cyano-1H-indol-7-yl)-1-(fluoromethyl)pyrazole-4-sulfonamide]
< 250 | 250 to 1000 | N#Cc1c[nH]c2c(NS(=O)(=O)c3cnn(C4COC4)c3)ccc(Cl)c12 [Compound 125, N-(4-chloro-3-cyano-1H-indol-7-yl)-1-(oxetan-3-yl)pyrazole-4-sulfonamide]
250 to 1000 | 250 to 1000 | Cc1ccc(NS(=O)(=O)c2cnn(C)c2)c2[nH]cc(F)c12 [Compound 126, N-(3-fluoro-4-methyl-1H-indol-7-yl)-1-methyl-pyrazole-4-sulfonamide]
< 250 | 250 to 1000 | CCn1cc(S(=O)(=O)Nc2ccc(Cl)c3c(C#N)c[nH]c23)cn1 [Compound 127, N-(4-chloro-3-cyano-1H-indol-7-yl)-1-ethyl-pyrazole-4-sulfonamide]
< 250 | < 250 | Cc1ccc(NS(=O)(=O)c2cnn(C3(C)COC3)c2F)c2[nH]cc(C#N)c12 [Compound 128, N-(3-cyano-4-methyl-1H-indol-7-yl)-5-fluoro-1-(3-methyloxetan-3-yl)pyrazole-4-sulfonamide]
< 250 | > 1000 | Cn1cc(S(=O)(=O)Nc2cccc3c(Cl)c(F)[nH]c23)cn1 [Compound 129, N-(3-chloro-2-fluoro-1H-indol-7-yl)-1-methyl-pyrazole-4-sulfonamide]
< 250 | 250 to 1000 | CC1(n2ncc(S(=O)(=O)Nc3ccc(Cl)c4c(C#N)c[nH]c34)c2F)COC1 [Compound 130, N-(4-chloro-3-cyano-1H-indol-7-yl)-5-fluoro-1-(3-methyloxetan-3-yl)pyrazole-4-sulfonamide]
< 250 | > 1000 | COC(=O)Cn1cc(S(=O)(=O)Nc2ccc(C)c3c(C#N)c[nH]c23)cn1 [Compound 133, methyl 2-[4-[(3-cyano-4-methyl-1H-indol-7-yl)sulfamoyl]pyrazol-1-yl]acetate]
< 250 | > 1000 | Cc1ccc(NS(=O)(=O)c2cnn(CC(=O)O)c2)c2[nH]cc(C#N)c12 [Compound 134, 2-[4-[(3-cyano-4-methyl-1H-indol-7-yl)sulfamoyl]pyrazol-1-yl]acetic acid]
< 250 | < 250 | [2H]C([2H])([2H])n1cc(S(=O)(=O)Nc2ccc(Cl)c3c(C#N)c[nH]c23)cn1 [Compound 135, N-(4-chloro-3-cyano-1H-indol-7-yl)-1-(trideuteriomethyl)pyrazole-4-sulfonamide]
< 250 | > 1000 | Cc1ccc(NS(=O)(=O)c2cnn(CC(=O)NC3CC(F)(F)C3)c2)c2[nH]cc(C#N)c12 [Compound 137, 2-[4-[(3-cyano-4-methyl-1H-indol-7-yl)sulfamoyl]pyrazol-1-yl]-N-(3,3-difluorocyclobutyl)acetamide]
< 250 | > 1000 | Cc1ccc(NS(=O)(=O)c2cnn(CC(=O)N3C[C@@H](F)[C@@H](F)C3)c2)c2[nH]cc(C#N)c12 [Compound 138, N-(3-cyano-4-methyl-1H-indol-7-yl)-1-[2-[(3R,4S)-3,4-difluoropyrrolidin-1-yl]-2-oxo-ethyl]pyrazole-4-sulfonamide]
< 250 | > 1000 | CNC(=O)Cn1cc(S(=O)(=O)Nc2ccc(C)c3c(C#N)c[nH]c23)cn1 [Compound 139, 2-[4-[(3-cyano-4-methyl-1H-indol-7-yl)sulfamoyl]pyrazol-1-yl]-N-methyl-acetamide]
250 to 1000 | > 1000 | Cc1ccc(NS(=O)(=O)c2cnn(CC(=O)N(C)C)c2)c2[nH]cc(C#N)c12 [Compound 140, 2-[4-[(3-cyano-4-methyl-1H-indol-7-yl)sulfamoyl]pyrazol-1-yl]-N,N-dimethyl-acetamide]

IC50 [1] [nM] | EC50 [2] [nM] | Structure (SMILES)
< 250 | > 1000 | Cc1ccc(NS(=O)(=O)c2cnn(CC(N)=O)c2)c2[nH]cc(C#N)c12 [Compound 141, 2-[4-[(3-cyano-4-methyl-1H-indol-7-yl)sulfamoyl]pyrazol-1-yl]acetamide]
< 250 | > 1000 | Cc1ccc(NS(=O)(=O)c2cnn(CC(=O)N3CCCC3)c2)c2[nH]cc(C#N)c12 [Compound 142, N-(3-cyano-4-methyl-1H-indol-7-yl)-1-(2-oxo-2-pyrrolidin-1-yl-ethyl)pyrazole-4-sulfonamide]
< 250 | < 250 | O=S(=O)(Nc1ccc(Cl)c2c(Cl)c[nH]c12)c1cnn(C2COC2)c1 [Compound 143, N-(3,4-dichloro-1H-indol-7-yl)-1-(oxetan-3-yl)pyrazole-4-sulfonamide]
< 250 | 250 to 1000 | Cc1ccc(NS(=O)(=O)c2cnn(C3COC3)c2F)c2[nH]cc(C#N)c12 [Compound 144, N-(3-cyano-4-methyl-1H-indol-7-yl)-5-fluoro-1-(oxetan-3-yl)pyrazole-4-sulfonamide]
< 250 | 250 to 1000 | Cc1ccc(NS(=O)(=O)c2cnn(CC3(C#N)CC3)c2)c2[nH]cc(C#N)c12 [Compound 145, N-(3-cyano-4-methyl-1H-indol-7-yl)-1-((1-cyanocyclopropyl)methyl)-1H-pyrazole-4-sulfonamide]
< 250 | > 1000 | Cc1ccc(NS(=O)(=O)c2cnn(C3CCNC3=O)c2)c2[nH]cc(C#N)c12 (centres unmarked) [Compound 146, N-(3-cyano-4-methyl-1H-indol-7-yl)-1-(2-oxopyrrolidin-3-yl)pyrazole-4-sulfonamide]
< 250 | > 1000 | N#Cc1c[nH]c2c(NS(=O)(=O)c3cnn(C4CCNC4=O)c3)ccc(Cl)c12 (centres unmarked) [Compound 147, N-(4-chloro-3-cyano-1H-indol-7-yl)-1-(2-oxopyrrolidin-3-yl)pyrazole-4-sulfonamide]
< 250 | 250 to 1000 | Cc1ccc(NS(=O)(=O)c2cn(C)nc2F)c2[nH]cc(C#N)c12 [Compound 148, N-(3-cyano-4-methyl-1H-indol-7-yl)-3-fluoro-1-methyl-pyrazole-4-sulfonamide]
< 250 | 250 to 1000 | Cc1ccc(NS(=O)(=O)c2cnn(C)c2C(F)F)c2[nH]cc(C#N)c12 [Compound 149, N-(3-cyano-4-methyl-1H-indol-7-yl)-5-(difluoromethyl)-1-methyl-pyrazole-4-sulfonamide]
< 250 | 250 to 1000 | Cn1ncc(S(=O)(=O)Nc2ccc(Cl)c3c(C#N)c[nH]c23)c1C(F)F [Compound 150, N-(4-chloro-3-cyano-1H-indol-7-yl)-5-(difluoromethyl)-1-methyl-pyrazole-4-sulfonamide]
< 250 | > 1000 | Cc1ccc(NS(=O)(=O)c2cnn([C@H]3CNC[C@H]3F)c2)c2[nH]cc(C#N)c12 [Compound 151, N-(3-cyano-4-methyl-1H-indol-7-yl)-1-[(3S,4R)-4-fluoropyrrolidin-3-yl]pyrazole-4-sulfonamide]
< 250 | > 1000 | N#Cc1c[nH]c2c(NS(=O)(=O)c3cnn([C@H]4CNC[C@H]4F)c3)ccc(Cl)c12 [Compound 152, N-(4-chloro-3-cyano-1H-indol-7-yl)-1-[(3S,4R)-4-fluoropyrrolidin-3-yl]pyrazole-4-sulfonamide]
< 250 | > 1000 | Cc1ccc(NS(=O)(=O)c2cnn([C@H]3CN(C(=O)OC(C)(C)C)C[C@H]3F)c2)c2[nH]cc(C#N)c12 [Compound 153, tert-butyl (3S,4R)-3-[4-[(3-cyano-4-methyl-1H-indol-7-yl)sulfamoyl]pyrazol-1-yl]-4-fluoro-pyrrolidine-1-carboxylate]
< 250 | 250 to 1000 | CC(C)(C(N)=O)n1cc(S(=O)(=O)Nc2ccc(Cl)c3c(C#N)c[nH]c23)cn1 [Compound 154, 2-[4-[(4-chloro-3-cyano-1H-indol-7-yl)sulfamoyl]pyrazol-1-yl]-2-methyl-propanamide]
< 250 | < 250 | Cc1ccc(NS(=O)(=O)c2cnn(C)c2Cl)c2[nH]cc(C#N)c12 [Compound 155, 5-chloro-N-(3-cyano-4-methyl-1H-indol-7-yl)-1-methyl-pyrazole-4-sulfonamide]
< 250 | 250 to 1000 | Cn1ncc(S(=O)(=O)Nc2ccc(Cl)c3c(C#N)c[nH]c23)c1Cl [Compound 156, 5-chloro-N-(4-chloro-3-cyano-1H-indol-7-yl)-1-methyl-pyrazole-4-sulfonamide]
< 250 | 250 to 1000 | Cc1ccc(NS(=O)(=O)c2cnn(C3(CC#N)COC3)c2)c2[nH]cc(C#N)c12 [Compound 157, N-(3-cyano-4-methyl-1H-indol-7-yl)-1-[3-(cyanomethyl)oxetan-3-yl]pyrazole-4-sulfonamide]
